Entries after “also recorded” stand apart in the source; their conditions may differ.
What was measured:
[1] = test system: chronic extensor tendinopathy at the elbow; experiment: Extensor tendinopathy (tennis elbow) clinical trial (randomized, double blind, placebo controlled)
[2] = test system: chronic tennis elbow; experiment: Example 5: patient case, chronic tennis elbow; type: in vivo, human; settings: patch 60 mcg/hr for 2 weeks
From the text: A patient suffering from chronic tennis elbow applies a transdermal patch delivering 60 mcg/hr nitroglycerin for a period of 2 weeks.

[3] = test system: chronic supraspinatus tendinopathy; type: in vivo, human
From the text: Three clinical trials were approved by an institutional Ethics Committee. Patients with clinical diagnoses of the specified tendinopathies were recruited through newspaper advertisements and private consulting rooms. All subjects were over 18 years of age, and gave written informed consent.
In the non-insertional Achilles tendinopathy trial, there were 65 patients (84 Achilles tendons) with 40 men and 25 women enrolled in the study, having a median age of 49 years (range 24 to 77 years), and a median duration of symptoms prior to the study of 16 months (range 4 to 147 months). In the extensor tendinopathy trial, there were 86 patients (95 elbows), with 42 males and 44 females, having a median age of 46 years (range 30 to 74 years), and a median duration of symptoms of 17 months (range 3 to 232 months). In the supraspinatus tendinopathy trial, there were 53 patients (57 shoulders), with 24 males and 29 females, having a median age of 52 years (range 25 to 79 years), and a median symptom duration of 14 months (range 4 to 96).
Diagnostic criteria for patient inclusion in the respective trials were as follows. The diagnosis of chronic non-insertional Achilles tendinopathy was based on an insidious onset of Achilles tendon pain, a tender nodule localized to the region 2 to 6 centimeters from the calcaneal insertion, and an ultrasound examination that excluded a frank tendon tear. The diagnosis of chronic extensor tendinopathy at the elbow was based on an insidious onset of lateral elbow pain, tenderness localized to the lateral humeral epicondyle and extensor carpi radialis brevis tendon, pain in the lateral elbow with resisted wrist or third metacarpophalangeal joint extension, and an ultrasound examination that excluded a frank tendon tear. The diagnosis of chronic supraspinatus tendinopathy was based on positive impingement signs (internal or external rotation), pain with supraspinatus muscle testing, and magnetic resonance imaging (MRI) high signal intensity without frank tear in the supraspinatus tendon.
Patients were excluded if they had tendinopathy of less than three months duration, current pregnancy, previous surgery on the affected limb or tendon, dislocation of the ipsilateral limb joints, distal neurological signs, a local corticosteroid injection in the previous three months, the current use of nitrate medications or phosphodiesterase inhibitors such as Viagra™, a family history of arthritis other than osteoarthritis, or extra-articular features of seronegative arthropathies. Generally, every participating patient could be considered to have persistent active tendinopathy.
The patients were randomly allocated into two groups. […] The active and placebo patches were indistinguishable from one another. The randomization was controlled by the senior pharmacist at the institution who also supervised the packaging of transdermal patches and their distribution to patients. Both the patients and the clinical examiner were blinded as to which group the patients were in, i.e. double-blind.
The transdermal patches were intact when distributed, and patients were required to cut the patches into quarters prior to application. Patients were also given a supply of paracetamol tablets (500 mg), and were instructed to use them exclusively for any headaches experienced.
Patients were instructed in the application of the patches at their initial visit. They were informed that the dosing regimen was one quarter of a transdermal patch to be applied daily to the skin area closest to the affected tendon. The patches were to be left in situ for 24 hours and then replaced with a new quarter patch. […] Patients were instructed to rotate the patch application site around this point with each new patch application for the six-month study duration in an effort to minimize application site irritation.
At the initial clinical assessment, all patients were instructed in the performance of a tendon specific rehabilitation program. […]

[4] = test system: persistent active tendinopathy of the left Achilles tendon; experiment: Example 3: patient case, persistent active tendinopathy of the left Achilles tendon; type: in vivo, human; settings: patch 30 mcg/hr for 8 weeks
From the text: A patient suffering from persistent active tendinopathy of the left Achilles tendon applies a transdermal patch delivering 30 mcg/hr nitroglycerin for a period of 8 weeks.

[5] = test system: Achilles tendinopathy (heels); experiment: Three year follow-up study of the Achilles trial of Example 1; type: in vivo, human; settings: for Night Pain—All Heels (mean adjusted for baseline) / Pain at Rest—All Heels (mean adjusted for baseline) / Pain With Activity—All Heels (mean adjusted for baseline) / Tenderness—All Heels (mean adjusted for baseline) / Hop Test—All Heels (mean adjusted for baseline): N=32; for Pain With Activity—All Heels (mean adjusted for baseline): scale 0-4; for Tenderness—All Heels (mean adjusted for baseline): scale 0-3; for Hop Test—All Heels (mean adjusted for baseline): pain score 0-10
Procedure: A three year follow-up study of the experiment presented in Example 1 was performed. […] Among the 52 patients in follow-up study ([…]), 15 had bilateral involvement (7 on the active patch and 8 on placebo). The results are presented in two sets. The follow-up study used the same outcome measures as were used in the original parent study.
The first set compares the results of the 68 heels and the second set results are shown for the 52 patients by averaging results for patients with bilateral involvement. Analyses were performed as analyses of covariance, with the baseline assessment as the covariate, to adjust the results for baseline differences. Mean results shown in Tables III-XIII below are adjusted for the baseline values.

[6] = week 24, more patients asymptomatic with activities of daily living than placebo, 1.25 mg/24 h patch + rehabilitation
[7] = 3 years, N=24, placebo 0.51, p=0.09
[8] = 24 weeks, N=24, placebo 0.86, p=0.09

O=[N+]([O-])OCC(CO[N+](=O)[O-])O[N+](=O)[O-] [glyceryl trinitrate, 1,2,3-propanetriol trinitrate] was tested, and the “Headache (Days) Average” value ([1]; GTN group) was “GTN 5 Days”, the “Headache (Days) Median” value ([1]; GTN group) was “GTN 3 Days” and the “Headache (Days) Total” value ([1]; GTN group) was 136 days. For the same compound, the “Headache: percentage of patients” value ([1]; GTN group) was 63%, the “No Side Effects” value ([1]; GTN group) was “GTN 35%” and the “Other Noted Side-Effects: Increase Axillary Sweating” value ([1]; GTN group) was “Sweating 2%”. For the same compound, the “Pain Outcomes: elbow pain with activity vs placebo” value ([1]; Week 2 (p=0.01)) was “significant decrease; also recorded: Decreased”, the “Tenderness Outcomes: lateral epicondylar tenderness vs placebo” value ([1]; Week 6 (p=0.02) / 12 (p=0.02)) was “significant decreases; also recorded: significantly less; also recorded: Decreased” and the “Force Outcomes: ORI-TETS mean peak force vs placebo” value ([1]; Week 24 (p=0.03)) was “significant increase; also recorded: Increased Mean”. The “Force Outcomes: ORI-TETS mean total work vs placebo” value ([1]; Week 24 (p=0.03)) was “significant increase; also recorded: Increased Mean”, the “Other Noted Side-Effects: Rash” value ([1]; application site, GTN group) was “Rash 21%,” and the “number needed to treat (NNT)” value ([1]; excellent result at 24 weeks, Chi square p=0.005) was 4.8. The “Discontinuations: Headache” value ([1]; patients, all GTN group) was “Headache 2”, the “Discontinuations: Rash” value ([1]; patients, all GTN group) was “Rash 2,” and the “Paracetamol Average” value ([1]; used for headache, GTN group) was “GTN 8 tablets”. The “Paracetamol Median” value ([1]; used for headache, GTN group) was “GTN 4 tablets”, the “Paracetamol Total” value ([1]; used for headache, GTN group) was “GTN 214 tablets” and the “Improved Patient Outcomes” value [1, 6] was 21%. For the same compound, the “patients with excellent improvement, patient reported” value ([1]; week 24, placebo 60%) was 81%, the “continuation of the reduction of symptoms after discontinuance” value [2] was “at least two weeks” and the “Headache (Days) Average” value ([3]; GTN group) was “GTN 6 Days”. The “Headache (Days) Median” value ([3]; GTN group) was “GTN 4 Days”, the “Headache (Days) Total” value ([3]; GTN group) was “GTN 127 Days” and the “Headache: percentage of patients” value ([3]; GTN group) was “(76%)”. For the same compound, the “No Side Effects” value ([3]; GTN group) was “GTN 30%”, the “Tenderness Outcomes vs placebo” value ([3]; anteroinferior subacromial tenderness) was “no significant differences” and the “Other Noted Side-Effects: Rash” value ([3]; application site, GTN group) was “Rash 8%”. For the same compound, the “number needed to treat (NNT)” value ([3]; excellent result at 24 weeks, Chi square p=0.007) was 4.5, the “reported rate of headache and average number of headaches experienced vs placebo” value ([3]; human, in vivo) was “significant between-group differences” and the “number of days affected by headache vs placebo” value ([3]; p=0.001) was “significant increase”. For the same compound, the “Discontinuations: Headache” value ([3]; patients, all GTN group) was “Headache 2”, the “Paracetamol Average” value ([3]; used for headache, GTN group) was “GTN 7 tablets” and the “Paracetamol Median” value ([3]; used for headache, GTN group) was “GTN 2 tablets”. The “Paracetamol Total” value ([3]; used for headache, GTN group) was “GTN 138 tablets”, the “Improved Patient Outcomes” value [3, 6] was 22% and the “patients with excellent improvement, patient reported” value ([3]; week 24, placebo 24%) was 46%. For the same compound, the “pain and tenderness of the ankle after discontinuation” value ([4]; eight weeks following discontinuation) was “continue to feel decreased pain and tenderness of the ankle”, the “pain and tenderness of the ankle during therapy” value ([4]; person) was “reduction of pain and tenderness of the ankle by day 2 of therapy” and the “Night Pain—Average Result Used for Bilateral Patients” value ([5]; 3 years, N=24, placebo 0.29, p=0.06) was 0.07. For the same compound, the “Pain at Rest—Average Result Used for Bilateral Patients” value ([5]; 3 years, N=24, placebo 0.39, p=0.08) was 0.10, the “Hop Test—Average Result Used for Bilateral Patients” value [5, 7] was 0.15 and the “Pain With Activity—Average Result Used for Bilateral Patients” value [5, 7] was 0.15. For the same compound, the “Tenderness—Average Result Used for Bilateral Patients” value ([5]; 3 years, N=24, placebo 0.66, p=0.052) was 0.33, the “RTS, %” value ([5]; 3 years, N=24, placebo 71.4%, p=0.16) was 87.5% and the “Night Pain—All Heels (mean adjusted for baseline)” value ([5]; 3 years, placebo 0.27, p=0.07) was 0.10. For the same compound, the “Pain at Rest—All Heels (mean adjusted for baseline)” value ([5]; 3 years, placebo 0.35, p=0.07) was 0.10, the “Pain With Activity—All Heels (mean adjusted for baseline)” value ([5]; 3 years, placebo 0.50, p=0.059) was 0.16 and the “Tenderness—All Heels (mean adjusted for baseline)” value ([5]; 3 years, placebo 0.66, p=0.031) was 0.35. For the same compound, the “Hop Test—All Heels (mean adjusted for baseline)” value ([5]; 3 years, placebo 0.96, p=0.07) was 0.36, the “Night Pain—Average Result Used for Bilateral Patients” value ([5]; 24 weeks, N=24, placebo 0.34, p=0.11) was 0.15 and the “Pain at Rest—Average Result Used for Bilateral Patients” value ([5]; 24 weeks, N=24, placebo 0.46, p=0.20) was 0.26. For the same compound, the “Hop Test—Average Result Used for Bilateral Patients” value [5, 8] was 0.44, the “Pain With Activity—Average Result Used for Bilateral Patients” value [5, 8] was 0.44 and the “Tenderness—Average Result Used for Bilateral Patients” value ([5]; 24 weeks, N=24, placebo 0.90, p=0.43) was 0.70. For the same compound, the “Night Pain—All Heels (mean adjusted for baseline)” value ([5]; 24 weeks, placebo 0.30, p=0.36) was 0.19, the “Pain at Rest—All Heels (mean adjusted for baseline)” value ([5]; 24 weeks, placebo 0.41, p=0.35) was 0.29 and the “Pain With Activity—All Heels (mean adjusted for baseline)” value ([5]; 24 weeks, placebo 0.78, p=0.22) was 0.52. The “Tenderness—All Heels (mean adjusted for baseline)” value ([5]; 24 weeks, placebo 0.83, p=0.49) was 0.69, the “Hop Test—All Heels (mean adjusted for baseline)” value ([5]; 24 weeks, placebo 1.57, p=0.026) was 0.61 and the “results of each assessment vs placebo” value ([5]; both at 24 weeks and at 3 years) was “numerically better results”.
